Experimental findings from ChEMBL document CHEMBL5653615 (J Biol Chem, 2013) are described below.

Broadly, the inhibition is the change of the read-out against control, counted positive when it falls.

Assay [1] has as its target G protein-coupled receptor kinase 4 (Homo sapiens) (UniProt P32298). Briefly: Inhibition of human GRK4 at 18.6 nM by HotSpot assay relative to control.
Assay [2] deals with T1, Activin receptor type-1B (Homo sapiens) (UniProt P36896).
T1 sequence (whole entry): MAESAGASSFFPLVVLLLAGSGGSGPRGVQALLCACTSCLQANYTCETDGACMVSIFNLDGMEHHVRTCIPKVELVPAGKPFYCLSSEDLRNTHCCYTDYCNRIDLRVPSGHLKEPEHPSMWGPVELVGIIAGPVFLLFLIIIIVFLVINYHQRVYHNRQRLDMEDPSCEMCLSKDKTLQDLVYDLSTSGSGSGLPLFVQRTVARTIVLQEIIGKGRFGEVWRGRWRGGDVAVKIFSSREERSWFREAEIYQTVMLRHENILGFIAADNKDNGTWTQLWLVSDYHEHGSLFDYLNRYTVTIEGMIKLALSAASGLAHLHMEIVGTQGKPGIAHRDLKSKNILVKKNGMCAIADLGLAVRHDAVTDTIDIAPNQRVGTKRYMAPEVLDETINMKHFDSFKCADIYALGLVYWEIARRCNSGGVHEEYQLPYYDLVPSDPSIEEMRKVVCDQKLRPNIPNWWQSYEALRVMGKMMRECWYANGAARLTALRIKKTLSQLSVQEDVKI
As to the kind of experiment: Inhibition of human ALK4 at 18.6 nM by HotSpot assay relative to control.

Assay [3] deals with Serine/threonine-protein kinase 16 (Homo sapiens) (UniProt O75716). As to the kind of experiment: Inhibition of human STK16 at 18.6 nM by HotSpot assay relative to control.
For assay [4], the target named is Angiopoietin-1 receptor (Homo sapiens) (UniProt Q02763). Briefly: Inhibition of human TEK at 18.6 nM by HotSpot assay relative to control.
The target of assay [5] is Receptor-type tyrosine-protein kinase FLT3 (Homo sapiens) (UniProt P36888). Briefly: Inhibition of human FLT3 at 18.6 nM by HotSpot assay relative to control.
Assay [6] addresses Interleukin-1 receptor-associated kinase 1 (Homo sapiens) (UniProt P51617). As to the kind of experiment: Inhibition of human IRAK1 at 18.6 nM by HotSpot assay relative to control.
Assay [7] deals with Myosin light chain kinase, smooth muscle (Homo sapiens) (UniProt Q15746). As to the kind of experiment: Inhibition of human MYLK at 18.6 nM by HotSpot assay relative to control.
In assay [8] the target is T2, Muscle, skeletal receptor tyrosine-protein kinase (Homo sapiens) (UniProt O15146).
T2 sequence (whole entry): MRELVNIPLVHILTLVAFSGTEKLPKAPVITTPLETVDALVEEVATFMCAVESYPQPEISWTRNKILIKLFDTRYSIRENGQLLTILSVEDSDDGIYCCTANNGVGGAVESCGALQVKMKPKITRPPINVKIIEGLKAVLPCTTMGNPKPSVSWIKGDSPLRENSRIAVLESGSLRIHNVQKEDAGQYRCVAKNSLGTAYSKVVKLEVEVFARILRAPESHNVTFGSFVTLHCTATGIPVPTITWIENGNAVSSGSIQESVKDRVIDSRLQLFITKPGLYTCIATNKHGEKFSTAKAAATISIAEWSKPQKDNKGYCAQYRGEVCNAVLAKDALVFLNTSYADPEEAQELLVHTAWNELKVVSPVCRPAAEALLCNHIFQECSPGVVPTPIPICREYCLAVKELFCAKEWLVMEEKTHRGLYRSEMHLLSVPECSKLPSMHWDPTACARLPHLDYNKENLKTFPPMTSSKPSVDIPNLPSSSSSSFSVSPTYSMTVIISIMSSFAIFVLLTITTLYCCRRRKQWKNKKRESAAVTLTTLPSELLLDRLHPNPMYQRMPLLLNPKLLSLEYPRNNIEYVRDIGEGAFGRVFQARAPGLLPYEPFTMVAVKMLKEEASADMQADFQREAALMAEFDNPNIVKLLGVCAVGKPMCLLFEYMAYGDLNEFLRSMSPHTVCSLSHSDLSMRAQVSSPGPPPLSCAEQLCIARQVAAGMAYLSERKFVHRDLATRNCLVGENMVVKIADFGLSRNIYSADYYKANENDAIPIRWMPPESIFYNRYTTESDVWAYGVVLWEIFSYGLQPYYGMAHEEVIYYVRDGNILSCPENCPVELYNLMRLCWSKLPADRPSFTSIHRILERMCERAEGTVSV
As to the kind of experiment: Inhibition of human MUSK at 18.6 nM by HotSpot assay relative to control.

The target in assay [9] is T3, Inhibitor of nuclear factor kappa-B kinase subunit alpha (Homo sapiens) (UniProt O15111).
T3 sequence (whole entry): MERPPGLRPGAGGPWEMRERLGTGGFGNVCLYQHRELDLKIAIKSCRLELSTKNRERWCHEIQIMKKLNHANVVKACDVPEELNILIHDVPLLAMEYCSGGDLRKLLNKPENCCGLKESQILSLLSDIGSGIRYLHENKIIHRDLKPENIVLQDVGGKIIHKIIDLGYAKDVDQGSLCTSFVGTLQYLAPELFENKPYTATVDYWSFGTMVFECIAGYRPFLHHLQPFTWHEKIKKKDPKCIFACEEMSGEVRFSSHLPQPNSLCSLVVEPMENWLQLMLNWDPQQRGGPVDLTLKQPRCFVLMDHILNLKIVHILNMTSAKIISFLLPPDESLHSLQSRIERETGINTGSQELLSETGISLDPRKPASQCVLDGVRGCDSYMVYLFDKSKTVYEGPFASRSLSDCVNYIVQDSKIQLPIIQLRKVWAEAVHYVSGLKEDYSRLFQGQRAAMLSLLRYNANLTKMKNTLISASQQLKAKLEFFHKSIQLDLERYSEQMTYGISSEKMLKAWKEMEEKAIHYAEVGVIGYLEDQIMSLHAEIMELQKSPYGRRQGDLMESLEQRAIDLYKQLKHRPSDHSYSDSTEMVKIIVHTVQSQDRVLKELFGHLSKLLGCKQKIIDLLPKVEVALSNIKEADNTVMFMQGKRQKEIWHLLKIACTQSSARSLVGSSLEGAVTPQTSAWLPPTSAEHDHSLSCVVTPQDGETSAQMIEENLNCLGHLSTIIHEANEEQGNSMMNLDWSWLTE
The following applies: dose 1.82 nM.
Description: Inhibition of human IKKa at 1.82 nM by HotSpot assay relative to control

Assay [10] has as its target Homeodomain-interacting protein kinase 1 (Homo sapiens) (UniProt Q86Z02). Briefly: Inhibition of human HIPK1 at 1.82 nM by HotSpot assay relative to control.
In assay [11] the target is Activin receptor type-1-like (Homo sapiens) (UniProt P37023). Briefly: Inhibition of human ALK1 at 1.82 nM by HotSpot assay relative to control.
In assay [12] the target is Tyrosine-protein kinase Lyn (Homo sapiens) (UniProt P07948). Briefly: Inhibition of human LYN at 1.82 nM by HotSpot assay relative to control.
Assay [13] has as its target Focal adhesion kinase 1 (Homo sapiens) (UniProt Q05397). As to the kind of experiment: Inhibition of human FAK at 1.82 nM by HotSpot assay relative to control.
The target in assay [14] is Serine/threonine-protein kinase 24 (Homo sapiens) (UniProt Q9Y6E0). Briefly: Inhibition of human STK24 at 1.82 nM by HotSpot assay relative to control.
Sequence of Serine/threonine-protein kinase 24 (Homo sapiens) (Q9Y6E0 whole entry, looked up): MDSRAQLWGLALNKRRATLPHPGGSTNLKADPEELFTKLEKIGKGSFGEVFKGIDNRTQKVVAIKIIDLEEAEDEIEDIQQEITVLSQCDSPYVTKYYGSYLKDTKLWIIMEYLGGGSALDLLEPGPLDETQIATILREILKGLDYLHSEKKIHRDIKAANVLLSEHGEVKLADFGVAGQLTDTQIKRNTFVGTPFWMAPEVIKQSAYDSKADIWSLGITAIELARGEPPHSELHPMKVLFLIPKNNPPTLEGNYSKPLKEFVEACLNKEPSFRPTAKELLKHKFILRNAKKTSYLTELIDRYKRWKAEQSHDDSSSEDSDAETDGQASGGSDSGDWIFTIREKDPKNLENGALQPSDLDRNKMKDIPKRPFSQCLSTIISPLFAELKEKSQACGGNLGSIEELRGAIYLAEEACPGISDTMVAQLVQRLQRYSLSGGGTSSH

Sequence of Angiopoietin-1 receptor (Homo sapiens) (Q02763 whole entry): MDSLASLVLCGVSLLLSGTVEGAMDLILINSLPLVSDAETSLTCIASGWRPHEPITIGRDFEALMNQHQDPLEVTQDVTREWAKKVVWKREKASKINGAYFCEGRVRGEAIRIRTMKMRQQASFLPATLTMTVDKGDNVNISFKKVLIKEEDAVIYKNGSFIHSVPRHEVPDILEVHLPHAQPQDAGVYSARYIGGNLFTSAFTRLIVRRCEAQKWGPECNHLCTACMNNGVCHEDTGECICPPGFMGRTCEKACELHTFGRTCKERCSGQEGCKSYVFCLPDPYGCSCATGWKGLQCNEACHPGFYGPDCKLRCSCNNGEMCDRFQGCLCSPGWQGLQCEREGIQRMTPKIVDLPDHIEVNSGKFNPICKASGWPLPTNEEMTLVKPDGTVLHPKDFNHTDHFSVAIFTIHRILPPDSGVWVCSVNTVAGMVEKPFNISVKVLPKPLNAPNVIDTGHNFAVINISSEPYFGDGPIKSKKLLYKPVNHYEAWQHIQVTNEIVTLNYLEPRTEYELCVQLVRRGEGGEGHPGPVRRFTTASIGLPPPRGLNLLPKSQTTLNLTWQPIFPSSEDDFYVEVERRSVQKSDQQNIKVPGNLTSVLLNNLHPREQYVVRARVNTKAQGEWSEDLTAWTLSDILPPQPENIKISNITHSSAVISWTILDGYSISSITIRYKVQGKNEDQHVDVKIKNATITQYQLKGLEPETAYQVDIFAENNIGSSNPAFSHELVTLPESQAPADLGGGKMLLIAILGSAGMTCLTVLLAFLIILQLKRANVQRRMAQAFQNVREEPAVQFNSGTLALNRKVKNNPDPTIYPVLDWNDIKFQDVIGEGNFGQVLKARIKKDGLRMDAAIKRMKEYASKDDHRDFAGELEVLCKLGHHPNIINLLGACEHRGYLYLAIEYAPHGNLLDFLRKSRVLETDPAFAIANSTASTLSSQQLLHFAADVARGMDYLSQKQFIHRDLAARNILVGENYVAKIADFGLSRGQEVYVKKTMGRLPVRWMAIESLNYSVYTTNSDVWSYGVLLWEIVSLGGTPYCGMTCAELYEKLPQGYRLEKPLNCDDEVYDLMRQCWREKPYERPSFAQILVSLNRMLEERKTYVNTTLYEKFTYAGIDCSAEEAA
Sequence of Activin receptor type-1-like (Homo sapiens) (P37023 whole entry): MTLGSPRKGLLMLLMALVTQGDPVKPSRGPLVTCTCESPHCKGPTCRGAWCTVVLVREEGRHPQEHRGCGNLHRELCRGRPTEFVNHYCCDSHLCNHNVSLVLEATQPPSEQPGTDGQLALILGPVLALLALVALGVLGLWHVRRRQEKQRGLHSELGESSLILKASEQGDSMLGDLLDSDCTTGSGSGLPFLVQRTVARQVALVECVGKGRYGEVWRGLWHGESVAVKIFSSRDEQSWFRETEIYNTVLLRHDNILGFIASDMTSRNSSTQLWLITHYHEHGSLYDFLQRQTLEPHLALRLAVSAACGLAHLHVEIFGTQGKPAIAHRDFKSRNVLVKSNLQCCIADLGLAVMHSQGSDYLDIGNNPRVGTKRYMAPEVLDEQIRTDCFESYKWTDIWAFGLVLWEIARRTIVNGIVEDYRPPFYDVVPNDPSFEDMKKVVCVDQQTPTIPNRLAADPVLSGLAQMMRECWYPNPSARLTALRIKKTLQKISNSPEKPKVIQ
Sequence of Interleukin-1 receptor-associated kinase 1 (Homo sapiens) (P51617 whole entry, looked up): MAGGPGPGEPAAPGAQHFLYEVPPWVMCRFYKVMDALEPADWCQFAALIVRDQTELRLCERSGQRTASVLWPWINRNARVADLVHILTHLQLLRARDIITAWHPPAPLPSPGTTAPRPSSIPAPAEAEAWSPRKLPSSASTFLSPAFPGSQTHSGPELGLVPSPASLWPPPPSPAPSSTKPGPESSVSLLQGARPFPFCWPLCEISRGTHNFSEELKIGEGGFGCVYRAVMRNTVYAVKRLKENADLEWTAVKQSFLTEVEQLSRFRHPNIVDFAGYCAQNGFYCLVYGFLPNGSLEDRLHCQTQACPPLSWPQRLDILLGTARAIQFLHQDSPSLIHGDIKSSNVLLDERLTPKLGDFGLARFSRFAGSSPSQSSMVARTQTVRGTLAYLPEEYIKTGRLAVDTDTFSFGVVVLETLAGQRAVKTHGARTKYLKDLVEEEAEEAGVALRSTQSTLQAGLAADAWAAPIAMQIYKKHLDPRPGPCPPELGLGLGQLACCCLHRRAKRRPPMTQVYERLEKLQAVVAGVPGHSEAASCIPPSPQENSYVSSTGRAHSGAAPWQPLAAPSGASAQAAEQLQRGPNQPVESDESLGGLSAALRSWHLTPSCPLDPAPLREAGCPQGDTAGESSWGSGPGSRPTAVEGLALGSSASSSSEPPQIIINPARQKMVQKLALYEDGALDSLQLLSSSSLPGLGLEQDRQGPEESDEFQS
Sequence of Homeodomain-interacting protein kinase 1 (Homo sapiens) (Q86Z02 whole entry, looked up): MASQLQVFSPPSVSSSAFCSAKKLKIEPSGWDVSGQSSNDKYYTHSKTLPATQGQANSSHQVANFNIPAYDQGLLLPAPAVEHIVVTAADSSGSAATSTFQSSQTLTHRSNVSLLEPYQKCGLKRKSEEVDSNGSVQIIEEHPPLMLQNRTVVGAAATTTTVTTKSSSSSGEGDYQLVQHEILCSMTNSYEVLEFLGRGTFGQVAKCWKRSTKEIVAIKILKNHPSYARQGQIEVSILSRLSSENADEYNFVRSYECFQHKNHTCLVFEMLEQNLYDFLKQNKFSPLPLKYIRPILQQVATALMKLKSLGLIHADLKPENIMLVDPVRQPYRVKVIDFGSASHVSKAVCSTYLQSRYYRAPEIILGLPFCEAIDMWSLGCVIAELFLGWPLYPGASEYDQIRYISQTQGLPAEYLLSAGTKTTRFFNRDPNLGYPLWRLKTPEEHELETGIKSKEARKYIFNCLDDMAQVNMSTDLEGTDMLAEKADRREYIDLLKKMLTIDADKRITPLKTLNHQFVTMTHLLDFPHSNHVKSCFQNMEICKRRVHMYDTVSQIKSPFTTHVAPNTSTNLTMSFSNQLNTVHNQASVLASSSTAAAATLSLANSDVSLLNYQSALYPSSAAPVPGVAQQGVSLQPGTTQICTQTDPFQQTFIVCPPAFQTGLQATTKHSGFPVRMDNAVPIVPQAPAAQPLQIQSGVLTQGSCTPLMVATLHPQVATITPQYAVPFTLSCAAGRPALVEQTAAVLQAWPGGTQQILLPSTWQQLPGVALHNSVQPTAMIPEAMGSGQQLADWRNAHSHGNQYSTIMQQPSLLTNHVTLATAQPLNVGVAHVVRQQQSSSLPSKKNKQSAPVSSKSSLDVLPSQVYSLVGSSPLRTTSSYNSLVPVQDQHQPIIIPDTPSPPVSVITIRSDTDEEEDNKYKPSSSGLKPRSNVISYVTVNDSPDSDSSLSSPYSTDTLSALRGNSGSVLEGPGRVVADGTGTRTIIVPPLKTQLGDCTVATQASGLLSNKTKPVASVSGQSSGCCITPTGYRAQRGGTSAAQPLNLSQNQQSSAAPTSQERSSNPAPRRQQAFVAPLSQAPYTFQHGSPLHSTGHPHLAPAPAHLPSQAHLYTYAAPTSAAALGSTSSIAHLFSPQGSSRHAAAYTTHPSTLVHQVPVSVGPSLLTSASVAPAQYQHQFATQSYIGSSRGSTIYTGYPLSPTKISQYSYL
Sequence of Focal adhesion kinase 1 (Homo sapiens) (Q05397 2-1052 limits assumed): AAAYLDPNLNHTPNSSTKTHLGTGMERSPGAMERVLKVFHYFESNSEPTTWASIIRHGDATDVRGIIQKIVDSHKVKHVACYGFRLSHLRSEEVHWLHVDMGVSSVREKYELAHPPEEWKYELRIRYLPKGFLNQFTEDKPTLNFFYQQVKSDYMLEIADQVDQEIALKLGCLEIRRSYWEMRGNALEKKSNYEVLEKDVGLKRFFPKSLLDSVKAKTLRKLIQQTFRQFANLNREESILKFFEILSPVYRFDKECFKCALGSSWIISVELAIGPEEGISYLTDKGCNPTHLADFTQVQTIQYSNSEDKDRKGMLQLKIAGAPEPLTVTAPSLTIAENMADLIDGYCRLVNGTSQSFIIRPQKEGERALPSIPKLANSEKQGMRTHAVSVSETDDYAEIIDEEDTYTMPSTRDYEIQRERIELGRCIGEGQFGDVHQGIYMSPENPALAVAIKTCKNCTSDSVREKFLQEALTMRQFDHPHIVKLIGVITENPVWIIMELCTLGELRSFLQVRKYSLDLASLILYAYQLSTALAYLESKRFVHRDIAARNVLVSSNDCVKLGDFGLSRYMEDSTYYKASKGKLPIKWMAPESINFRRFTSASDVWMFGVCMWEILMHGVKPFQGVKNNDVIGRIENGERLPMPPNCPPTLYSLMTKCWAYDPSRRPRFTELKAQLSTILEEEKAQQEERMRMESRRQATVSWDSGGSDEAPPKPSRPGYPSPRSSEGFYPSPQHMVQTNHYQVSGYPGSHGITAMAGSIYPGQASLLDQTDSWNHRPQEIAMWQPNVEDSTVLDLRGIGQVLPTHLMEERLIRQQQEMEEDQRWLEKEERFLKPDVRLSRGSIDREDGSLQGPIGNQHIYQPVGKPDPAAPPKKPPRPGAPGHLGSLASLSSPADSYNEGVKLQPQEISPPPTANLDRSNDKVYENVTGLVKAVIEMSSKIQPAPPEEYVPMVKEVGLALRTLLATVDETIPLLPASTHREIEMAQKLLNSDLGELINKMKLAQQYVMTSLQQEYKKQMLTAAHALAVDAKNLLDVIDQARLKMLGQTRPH

`C[C@]1(O)C[C@@H](c2nc(-c3ccc4ccc(-c5ccccc5)nc4c3)c3c(N)nccn32)C1`: the inhibition in [1] was 5.49%; in [2], -0.44%; in [3], -0.38%; in assay [4], 2.86%; in assay [5], -4.3%; in [6], -8.8%. Moreover, the inhibition in assay [7] worked out at 2.54%; in [8], 1.47%.
`C[C@@]1(C(=O)Nc2ccc(F)nc2)CCCN1c1nc(Nc2cc(C3CC3)n[nH]2)c2cccn2n1`: the inhibition is 3.74% in [9]; -6.64% in assay [10]; 0.3% in assay [11]; 3.66% in assay [12]; 1.65% in assay [13]; 2.42% in assay [14].
